# Source: article PMC4319692 (Molecular Pharmaceutics, 2014)
# Test: Metabolic stability in human liver microsomes
# Format: in vitro ADME
# Conditions: 10 μM, pooled human liver microsomes 1 mg/mL with cofactors, 2 h
smiles,measurement,value
C[C@]12CC[C@H]3[C@@H](CCC4=CC(=O)CC[C@@]43C)[C@@H]1CC[C@@H]2O [testosterone],decrease (disappearance) of parent compound,more than 95%
